Experiments:
[1] = tested on: oncogene-transformed BJ cells; assay: PI staining and FACS analysis, sub-G1 cell death; assay type: cell-based, human; settings: for cell death (population of cells in sub-G1) / cell death: 48 h; for cell death (population of cells in sub-G1): Compound 1 2.5 μM, other Group 1 and Group 2 compounds 10 μM, Compound 3 5 μM (FIG. 5A)
Protocol: FIG. 5A is a histogram showing the ability of Compound 1 (a131) and its derivatives Compound 2 (a156), Compound 16 (b5), Compound 17 (b9), all in Group 1; Compound 29 (a219), Compound 13 (b12), Compound 11 (b15), Compound 12 (b16), Compound 25 (a166), all in Group 2; and Compound 3 (a159) from Group 3, to induce cancer selective cell death. Isogenic non-transformed (normal) and oncogene-transformed BJ cells were treated with each compound for 48 h and cells were stained with propidium iodide (PI) and subjected to FACS analysis. The percentage of cells in sub-G1 phase is indicative of the extent of cell death. […] In contrast, the ability of the compounds in Groups 2 and 3 to induce cancer selective cell death was markedly compromised (or reduced).
The Compounds 25 (a166) and 3 (a159) were selected from Group 2 and Group 3, respectively. Isogenic non-transformed normal and oncogene-transformed BJ cells were treated with or without 0.3 μM or 0.6 μM Compound 3 (a159) alone or together with 1.25 μM Compound 25 (a166) for 48 h. Cells were stained with propidium iodide (PI) and subjected to FACS analysis.
Isogenic non-transformed and oncogene-transformed human fibroblast BJ cell lines were cultured in DMEM supplemented with 10% FBS. The cells were treated with Compound 1 (2.5 μM, DMSO). 48 h after treatment, the cells were fixed with ethanol at −30° C. overnight and stained with 20 μg/mL propidium iodide (PI) and 10 μg/mL RNase A for 30 min. These cells were then subjected to flow cytometry (FACS) analysis using MACSQuant (Miltenyi Biotec) to count the percentage of apoptotic cells in sub-G1 peak.
The above procedure was repeated for Group 1 Compounds 2, 16 and 17, Group 2 Compounds 29, 13, 11, 12 and 25 at a concentration of 10 μM, and Group 3 Compound 3 at a concentration of 5 μM.
Isogenic non-transformed normal and oncogene-transformed BJ cells were cultured as in Biology Example 3. The cells were treated with a combination of Compound 3 (Group 3, at a concentration of 0.3 μM or 0.6 μM), and Compound 25 (Group 2, at a concentration of 1.25 μM) for 48 hours. Controls using DMSO, Compound 3 and Compound 25 alone (at the concentrations mentioned above) were also performed.

[2] = tested on: mitotic marker phospho-histone H3 at serine 10 (pH3 (Ser10)) in transformed BJ cells; assay: Immunoblot analysis of mitotic marker pH3 (Ser10), derivatives of Compound 1; assay type: cell-based; settings: Homo sapiens, band intensities pH3(Ser10)/β-actin vs DMSO control, 24 h
Protocol: (§1) FIG. 4 compares the ability of Compound 1 (a131), and various derivatives thereof (referred to using their code numbers for brevity; the designated chemical compound for each code number is provided in the chemical examples section below), to inhibit autophagy and/or mitosis. BJ transformed cells were treated with 5 μM of various Compounds as shown, for 24 h. Cells were harvested and total lysates were analysed by detecting the mitotic marker phospho-histone H3 at serine 10 (pH3 (Ser10)) and the autophagosome marker LC3. Antibodies raised against β-actin were used as an internal loading control.
(§2) The ability of Compound 1 to inhibit lysosome function was examined using immunoblotting. HeLa cervical cancer cells were cultured in Dulbecco's modified Eagle's medium (DMEM) supplemented with 10% Fetal Bovine Serum (FBS, Thermo Scientific). The HeLa cells were treated with different concentrations of Compound 1 (0.625, 1.25, 2.5, 5 and 10 μM, dimethyl sulfoxide (DMSO, Kanto Kagaku)), chloroquine (CQ) (1.25, 2.5, 10, 50 and 100 μM, DMSO) or DMSO for 6 h. Then, the treated cells were harvested and lysed in 1% triton lysis buffer [25 mM Tris HCl (pH8.0), 150 mM NaCl, 1% triton-X100, 1 mM dithiothreitol (DTT), protease inhibitor mix (Complete Mini, Roche) and phosphatase inhibitor (PhosphoStop, Roche)]. The proteins in total lysates were boiled with sample buffer (60 mM Tris-HCl (pH 6.8), 25% glycerol, 2% SDS, 14.4 mM 2-mercaptoethanol, 0.1% bromophenol blue) and resolved by 14% tris-glycine sodium dodecyl sulfate polyacrylamide gel electrophoresis (SDS-PAGE) and subjected to immunoblot analysis.
(§3) Defects in lysosome function and inhibition of autophagy can be measured by accumulation of LC3-phosphatidylethanolamine conjugated non-soluble form (LC3-II), which are converted from soluble LC3-I. Thus, antibodies raised against LC3 (Cell Signaling, Cat#4108) were used to determine lysosomal function and integrity. Antibodies raised against phosphorylated histone H3 at serine 10 residue (pH3) (Cell signaling, Cat#3377) were used as the marker for mitotic dysfunction and arrest. Antibodies raised against β-actin (Millipore, Cat#MAB1501) were used as an internal loading control. The inhibitory ability of Compound 1 was also quantitatively compared to CQ.
(§4) Derivatives of Compound 1 were tested to see if they had similar dual activity, or presented only one of the activities of Compound 1. The protocol for immunoblot analysis described in Biology Example 1 was applied to the additional indicated compounds.
(§5) Activities of compounds were determined by two independent experiments. First, Compounds were classified according to the intensity of increase in each of the mitotic marker phospho-histone H3 at serine 10 (pH3 (Ser 10)) and the autophagosome marker LC3, respectively, at 1.25 μM, when compared with 1.25 μM Compound 1 (a131).
(§6) Compounds classified “++” on either “mitosis” or “inhibits lysosome” show similar increase in each of the mitotic marker phospho-histone H3 at serine 10 (pH3 (Ser10)) and the autophagosome marker LC3, respectively, at 2.5 μM, when compared with 1.25 μM Compound 1 (a131); and compounds classified “+” on either “mitosis” or “inhibits lysosome” show similar increase in each of the mitotic marker phospho-histone H3 at serine 10 (pH3 (Ser10)) and the autophagosome marker LC3, respectively, at a concentration range of 5-10 μM, when compared with 1.25 μM Compound 1 (a131).
Compounds classified “+/−” on either “mitosis” or “inhibits lysosome” show less increase in each of the mitotic marker phospho-histone H3 at serine 10 (pH3 (Ser10)) and the autophagosome marker LC3, respectively, at a concentration range of 5-10 μM, when compared with 1.25 μM Compound 1 (a131).
Next, the ability of Compound 1 and its derivatives to induce mitotic arrest in transformed BJ cells was quantified as the fold induction of band intensities [pH3(Ser10)/β-actin] in comparison with DMSO control. […]

[3] = tested on: autophagosome marker LC3 (LC3 II/LC3 I) in transformed BJ cells; assay: Immunoblot analysis of autophagosome marker LC3 (lysosome function), derivatives of Compound 1; assay type: cell-based; settings: Homo sapiens, band intensities LC3 II/LC3 I vs DMSO control, 24 h
Protocol: as §1, §2, §3, §4, §5, §6
Compounds classified “+/−” on either “mitosis” or “inhibits lysosome” show less increase in each of the mitotic marker phospho-histone H3 at serine 10 (pH3 (Ser10)) and the autophagosome marker LC3, respectively, at a concentration range of 5-10 μM, when compared with 1.25 μM Compound 1 (a131). […]

[4] = tested on: pH3 (Ser10) and LC3 in BJ transformed cells; assay: Immunoblot classification of compounds by pH3 and LC3 (FIG. 4); assay type: cell-based, human; settings: 5 μM, 24 h
Protocol: as §1, §4

SMILES | population of cells in sub-G1 ([1]; 2.5 and 5 μM, 24 h (FIG. 9A panels g-i)) | cell death (population of cells in sub-G1) [1] | fold induction at 5 µM [2] | fold induction at 5 µM [3] | Inhibition of lysosome function and/or mitosis (FIG. 4) [4] | cell death ([1]; Compound 3 alone at 0.3 μM) | cell death ([1]; Compound 3 alone at 0.6 μM) [%]
N#C/C(=C\c1cccc2cnccc12)c1c[nH]c2ccccc12 [Compound 1, (Z)-2-(1H-indol-3-yl)-3-(isoquinolin-5-yl)acrylonitrile] | massive increase in population of oncogene-transformed BJ cells in sub-G1 | selectively induced cell death in oncogene-transformed BJ cells while sparing normal counterparts | 7.3 | 5 | exhibit the dual properties of inhibiting both lysosome function and mitosis |  | 
N#C/C(=C\c1cccc2ncccc12)c1c[nH]c2ccccc12 [Compound 3, (Z)-2-(1H-indol-3-yl)-3-(quinolin-5-yl)acrylonitrile] |  | significantly induced cell death | 10.5 | 0.7 | inhibit mitosis only | negligible effect | −15
CN1CCN(CC(=O)n2cc(/C(C#N)=C/c3cccc4cnccc34)c3ccccc32)CC1 [Compound 16, (Z)-3-(isoquinolin-5-yl)-2-(1-(2-(4-methylpiperazin-1-yl)acetyl)-1H-indol-3-yl)acrylonitrile] |  | selectively induced cell death in oncogene-transformed BJ cells while sparing normal counterparts | 11.8 | 5 | exhibit the dual properties of inhibiting both lysosome function and mitosis |  | 
